Activity calls are given as the source filed them. How the calls were made is not given here.

This series deals with CCRIS mutagenicity, Ames/micronucleus/aberration tests. The series can be described thus: CCRIS mutagenicity studies.
Setting [1] is: Test System: AMES SALMONELLA TYPHIMURIUM, Strain/Indicator: TA98, Metabolic Activation: NONE, Method: PREINCUBATION
Setting [2] is: Test System: AMES SALMONELLA TYPHIMURIUM, Strain/Indicator: TA100, Metabolic Activation: NONE, Method: PREINCUBATION
The mark [3] stands for this setting: Test System: AMES SALMONELLA TYPHIMURIUM, Strain/Indicator: TA1535, Metabolic Activation: NONE, Method: PREINCUBATION
The mark [4] stands for this setting: Test System: AMES SALMONELLA TYPHIMURIUM, Strain/Indicator: TA100, Metabolic Activation: RAT, LIVER, S-9, PHENOBARBITAL AND 5,6-BENZOFLAVONE, Method: PREINCUBATION

With `c1ccc(CSCc2ccccc2)cc1`, the mutagenic call is, setting by setting: (Test System: AMES SALMONELLA TYPHIMURIUM, Strain/Indicator: TA97, Metabolic Activation: HAMSTER, LIVER, S-9, AROCLOR 1254 (10%), Method: PREINCUBATION) “inactive; negative”; (Test System: AMES SALMONELLA TYPHIMURIUM, Strain/Indicator: TA97, Metabolic Activation: HAMSTER, LIVER, S-9, AROCLOR 1254 (30%), Method: PREINCUBATION) “inactive; negative”; (Test System: AMES SALMONELLA TYPHIMURIUM, Strain/Indicator: TA97, Metabolic Activation: NONE, Method: PREINCUBATION) “inactive; negative”; (Test System: AMES SALMONELLA TYPHIMURIUM, Strain/Indicator: TA97, Metabolic Activation: RAT, LIVER, S-9, AROCLOR 1254 (10%), Method: PREINCUBATION) “inactive; negative”; (Test System: AMES SALMONELLA TYPHIMURIUM, Strain/Indicator: TA97, Metabolic Activation: RAT, LIVER, S-9, AROCLOR 1254 (30%), Method: PREINCUBATION) “inactive; negative”; (Test System: AMES SALMONELLA TYPHIMURIUM, Strain/Indicator: TA98, Metabolic Activation: HAMSTER, LIVER, S-9, AROCLOR 1254 (10%), Method: PREINCUBATION) “inactive; negative”. Moreover, the mutagenic call is “inactive; negative” (Test System: AMES SALMONELLA TYPHIMURIUM, Strain/Indicator: TA98, Metabolic Activation: HAMSTER, LIVER, S-9, AROCLOR 1254 (30%), Method: PREINCUBATION); “inactive; negative” under setting [1]; “inactive; negative” (Test System: AMES SALMONELLA TYPHIMURIUM, Strain/Indicator: TA98, Metabolic Activation: RAT, LIVER, S-9, AROCLOR 1254 (10%), Method: PREINCUBATION); “inactive; negative” (Test System: AMES SALMONELLA TYPHIMURIUM, Strain/Indicator: TA98, Metabolic Activation: RAT, LIVER, S-9, AROCLOR 1254 (30%), Method: PREINCUBATION); “inactive; negative” (Test System: AMES SALMONELLA TYPHIMURIUM, Strain/Indicator: TA100, Metabolic Activation: HAMSTER, LIVER, S-9, AROCLOR 1254 (10%), Method: PREINCUBATION); “inactive; negative” (Test System: AMES SALMONELLA TYPHIMURIUM, Strain/Indicator: TA100, Metabolic Activation: HAMSTER, LIVER, S-9, AROCLOR 1254 (30%), Method: PREINCUBATION). For the same molecule, the mutagenic call runs as follows: under setting [2], “inactive; negative”; (Test System: AMES SALMONELLA TYPHIMURIUM, Strain/Indicator: TA100, Metabolic Activation: RAT, LIVER, S-9, AROCLOR 1254 (10%), Method: PREINCUBATION) “inactive; negative”; (Test System: AMES SALMONELLA TYPHIMURIUM, Strain/Indicator: TA100, Metabolic Activation: RAT, LIVER, S-9, AROCLOR 1254 (30%), Method: PREINCUBATION) “inactive; negative”; (Test System: AMES SALMONELLA TYPHIMURIUM, Strain/Indicator: TA1535, Metabolic Activation: HAMSTER, LIVER, S-9, AROCLOR 1254 (10%), Method: PREINCUBATION) “inactive; negative”; (Test System: AMES SALMONELLA TYPHIMURIUM, Strain/Indicator: TA1535, Metabolic Activation: HAMSTER, LIVER, S-9, AROCLOR 1254 (30%), Method: PREINCUBATION) “inactive; negative”; under setting [3], “inactive; negative”. Further, the mutagenic call is, setting by setting: (Test System: AMES SALMONELLA TYPHIMURIUM, Strain/Indicator: TA1535, Metabolic Activation: RAT, LIVER, S-9, AROCLOR 1254 (10%), Method: PREINCUBATION) “inactive; negative”; (Test System: AMES SALMONELLA TYPHIMURIUM, Strain/Indicator: TA1535, Metabolic Activation: RAT, LIVER, S-9, AROCLOR 1254 (30%), Method: PREINCUBATION) “inactive; negative”.

With `Cc1cnc2cc(C)c3c(nc(N)n3C)c2n1`, the mutagenic call (Test System: AMES SALMONELLA TYPHIMURIUM, Strain/Indicator: TA98, Metabolic Activation: RAT, LIVER, S-9, AROCLOR 1254, Method: STANDARD PLATE) is “active; positive”.

For the molecule `Nc1ncc(/C=C/c2ccc([N+](=O)[O-])o2)nn1`, the mutagenic call reads like this: (Test System: E. COLI, Strain/Indicator: WP2, Metabolic Activation: NONE, Method: SPOT) “active; positive”; (Test System: E. COLI, Strain/Indicator: WP2 UVRA, Metabolic Activation: NONE, Method: SPOT) “active; positive”; (Test System: E. COLI, Strain/Indicator: WP2 UVRA, Metabolic Activation: NONE, Method: STANDARD PLATE) “active; positive”.

On to `Cc1c2ccccc2c(COS(=O)(=O)O)c2ccccc12`, for which the mutagenic call under setting [1] was “active; positive”.

On to `COc1ccc(Cc2cnc(N)nc2N)cc1OC`, for which the mutagenic call by setting is: (Test System: AMES SALMONELLA TYPHIMURIUM, Strain/Indicator: TA98, Metabolic Activation: HAMSTER, LIVER, S-9, PHENOBARBITAL AND BETA-NAPHTHOFLAVONE, Method: PREINCUBATION) “inactive; negative”; under setting [1], “inactive; negative”; (Test System: AMES SALMONELLA TYPHIMURIUM, Strain/Indicator: TA98, Metabolic Activation: RAT, LIVER, S-9, PHENOBARBITAL AND BETA-NAPHTHOFLAVONE, Method: PREINCUBATION) “inactive; negative”; (Test System: AMES SALMONELLA TYPHIMURIUM, Strain/Indicator: TA100, Metabolic Activation: HAMSTER, LIVER, S-9, PHENOBARBITAL AND BETA-NAPHTHOFLAVONE, Method: PREINCUBATION) “active; positive”; under setting [2], “inactive; negative”; (Test System: AMES SALMONELLA TYPHIMURIUM, Strain/Indicator: TA100, Metabolic Activation: RAT, LIVER, S-9, PHENOBARBITAL AND BETA-NAPHTHOFLAVONE, Method: PREINCUBATION) “inactive; negative”. Moreover, the mutagenic call by setting is: (Test System: E.COLI, Strain/Indicator: WP2UVRA/PKM101, Metabolic Activation: NONE, Method: PREINCUBATION) “inactive; negative”; (Test System: E.COLI, Strain/Indicator: WP2UVRA/PKM101, Metabolic Activation: RAT LIVER S-9, PHENOBARBITAL AND 5,6-BENZOFLAVONE, Method: PREINCUBATION) “inactive; negative”.

As for `Fc1cccc2c1ccc1ncccc12`, the mutagenic call under setting [4] is “active; positive”.

For the molecule `CCOC(=O)[C@H](CCc1ccccc1)N[C@@H](C)C(=O)N1[C@H](C(=O)O)C[C@H]2CCCC[C@@H]21`, the mutagenic call runs as follows: under setting [1], “inactive; negative”; (Test System: AMES SALMONELLA TYPHIMURIUM, Strain/Indicator: TA98, Metabolic Activation: RAT, LIVER, S-9, PHENOBARBITAL AND 5,6-BENZOFLAVONE, Method: PREINCUBATION) “inactive; negative”; under setting [2], “inactive; negative”; under setting [4], “inactive; negative”; under setting [3], “inactive; negative”; (Test System: AMES SALMONELLA TYPHIMURIUM, Strain/Indicator: TA1535, Metabolic Activation: RAT, LIVER, S-9, PHENOBARBITAL AND 5,6-BENZOFLAVONE, Method: PREINCUBATION) “inactive; negative”. For the same molecule, the mutagenic call runs as follows: (Test System: AMES SALMONELLA TYPHIMURIUM, Strain/Indicator: TA1537, Metabolic Activation: NONE, Method: PREINCUBATION) “inactive; negative”; (Test System: AMES SALMONELLA TYPHIMURIUM, Strain/Indicator: TA1537, Metabolic Activation: RAT, LIVER, S-9, PHENOBARBITAL AND 5,6-BENZOFLAVONE, Method: PREINCUBATION) “inactive; negative”; (Test System: E. COLI, Strain/Indicator: WP2 UVRA, Metabolic Activation: NONE, Method: PREINCUBATION) “inactive; negative”; (Test System: E. COLI, Strain/Indicator: WP2 UVRA, Metabolic Activation: RAT, LIVER, S-9, PHENOBARBITAL AND 5,6-BENZOFLAVONE, Method: PREINCUBATION) “inactive; negative”.

Values taken from PubChem BioAssay AID1259407 (Chemical Carcinogenesis Research Information System (CCRIS), 2018).
